From patent US7901692B2, “Nontypeable Haemophilus influenzae virulence factors” (Nationalwide Children's Hospital, Inc., priority 2003, dated 2011) come the findings set out here.

Assay [1] relates to NTHi parent strain 86-028NP. The experiment in a line: Broth minimal inhibitory concentration (MIC) analysis for protamine. It counts as cell-based, nontypeable Haemophilus influenzae. The conditions noted are these: aerobic growth in sBHI broth. On the procedure: (§1) Since the sap mutants of S. typhimurium and E. chrysanthemi were reported to be hypersensitive to certain antimicrobial peptides, sensitivity to several commercial available cationic peptides against the NTHi parent and the sapF mutant strains was analyzed. […] Broth minimal inhibitory concentration (MIC) analyses for protamine determined that the MIC of protamine for the sapF::mTn5 mutants was lower than that for the parent strain (0.2 mg/ml versus 0.4 mg/ml). […] Thus, the sapF gene product is not required for growth in enriched media, and the lack of growth of the sapF mutants at the lower protamine concentrations in sBHI broth was not due to a growth defect. Therefore, the sapF mutation may be responsible for the phenotype of increased sensitivity to protamine, and the in vivo attenuation property of the sapF mutant.

In assay [2] the test system is NTHi sapF::mTn5 mutants. The description is as above. It counts as cell-based, nontypeable Haemophilus influenzae.
Excerpt: To ensure no secondary mutation in the original sapF::mTn5 mutant contributed to the various phenotypes of this mutant, the parent strain 86-028NP was transformed with the 6 kb EcoRV fragment containing the sapF::mTn5 allele from the pBlueA1 plasmid. The wild type sapF gene was replaced in this strain by homologous recombination with the sapF::mTn5 allele. One Km resistant clone was confirmed to harbor a miniTn5 interrupted sapF gene by PCR and Southern blot analysis. This clone was further characterized together with the sapF::mTn5 strain and designated RcsapF::mTn5.
as §1

As to protamine, the MIC of protamine in assay [1] stood at 400 µg/mL; in assay [2] (sapF::mTn5 mutants, aerobic growth in sBHI broth) it was 200 µg/mL. Moreover, the “sensitivity of mutant to the action of protamine” value in assay [2] (sapF::mTn5 mutant, more sensitive (relative to parent strain)) came to 3 fold.
